Literature values as cited in patent US12409131B2, “Transdermal delivery of dronabinol” (Pike Therapeutics USA, Inc., priority 2019, dated 2025).

Assays:
[1] = in 96 hrs through human cadaver skin, U.S. Pat. No. 8,449,908

CCCCCc1cc(O)c2c(c1)OC(C)(C)[C@@H]1CCC(C)=C[C@@H]21 (relative stereo) [dronabinol, (6aR-trans)-6a,7,8,10a-tetrahydro-6,6,9-trimethyl-3-pentyl-6H-dibenzo[b,d]pyran-1-ol]
cumulative amount delivered [1]: 10000 ng | Oral bioavailability: 10-20%
